The target of one data set is T1, VDR-SRC2-1 (Homo sapiens, UniProt P11473, DEL165-215).
T1 construct: made in house
T1 sequence (P11473 with tags, fused parts or gaps DEL165-215 limits assumed): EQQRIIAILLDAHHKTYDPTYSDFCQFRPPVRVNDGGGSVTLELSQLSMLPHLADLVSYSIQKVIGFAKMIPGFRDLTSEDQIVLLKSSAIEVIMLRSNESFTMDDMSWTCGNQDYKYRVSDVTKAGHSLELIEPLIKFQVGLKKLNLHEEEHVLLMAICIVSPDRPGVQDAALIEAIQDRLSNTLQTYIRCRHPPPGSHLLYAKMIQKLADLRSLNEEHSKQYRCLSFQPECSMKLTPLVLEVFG
Briefly: VDR-coregulator binding FP, Texas Red-labeled peptide. The note with it: 3 h.

A further data set concerns the target T2, VDR-Hr1 (Homo sapiens, UniProt P11473, DEL165-215).
T2 construct: made in house
T2 sequence (P11473 with tags, fused parts or gaps DEL165-215 limits assumed): T1 sequence (P11473 with tags, fused parts or gaps DEL165-215 limits assumed)
Described as above. The settings on record: 3 h.

Another data set concerns the target T3, VDR-LBD / SRC2-3 peptide (Homo sapiens, UniProt P11473, DEL165-215).
T3 construct: made in house
T3 sequence (P11473 with tags, fused parts or gaps DEL165-215 limits assumed): T1 sequence (P11473 with tags, fused parts or gaps DEL165-215 limits assumed)
As to the kind of experiment: Identification of reaction partner, pre-incubation FP. It is filed as binding. The note with it: FP after 5 minutes.

The subject of the next data set is TRPV6 in DU145 cells. Briefly: TRPV6 expression, semi-quantitative RT-PCR. It is filed as cell-based.
A further data set has as its system CYP24A1. As to the kind of experiment: CYP24A1 expression levels. The class given is cell-based. The note with it: compound and calcitriol.
A further data set relates to DU145 cells. As to the kind of experiment: Cytotoxicity seen in TRPV6 expression study. It is filed as cell-based. The note with it: concentrations higher than 20 μM.
For another data set, the system named is VDR in SKOV-3 cells. As to the kind of experiment: VDR expression, western blotting of whole cell lysate. It is filed as cell-based. The settings on record: SKOV-3, 24 hours; 31b 25 and 50 uM, 32b 50 uM. The protocol: Expression of VDR was analyzed by western blotting of whole cell lysate using monoclonal antibody against VDR (Neomarker, Calif. cat no-RT-200PO).

In the next data set the test system is SKOV-3. As to the kind of experiment: Cytotoxicity, MTS assay. The class given is cell-based. The settings on record: SKOV-3, within 48 hours.
A further data set concerns OVCAR-8. Briefly: Cytotoxicity, MTS assay. The class given is cell-based. The settings on record: OVCAR-8, within 48 hours.
The next data set relates to ECC-1. As to the kind of experiment: Cytotoxicity, MTS assay. It is filed as cell-based. The settings on record: ECC-1 endometrial cancer cell-line, within 48 hours.
In data set [1] the test system is SKOV-3 cells. As to the kind of experiment: Mitochondrial transmembrane depolarization potential. It is filed as cell-based.
In data set [2] the test system is SKOV-3 cells. As to the kind of experiment: Western blots for cleaved PARP-1 and cleaved caspase-3. The settings on record: SKOV-3, within 24 hours. It is filed as cell-based.
Data set [3] concerns SKOV-3 cells. As to the kind of experiment: Reactive oxygen species levels. The class given is cell-based. The note with it: SKOV-3, within 24 hours. The text has this: (§1) Vitamin-d/VDR signaling protects the cancer cells from reactive oxygen species (ROS) induced cellular damages.
In data set [4] the test system is SKOV-3 cells. As to the kind of experiment: Western blots for phospho-p38 MAPkinase and phospho SAPK/JNK. It is filed as cell-based. The settings on record: SKOV-3, 25 uM, within 24 hours.
Source text: as §1

Data set [5] relates to SKOV-3 cells. Briefly: Cell cycle analysis by FACS. The class given is cell-based. The settings on record: SKOV-3, 24 hours. The text has this: Inducing cell cycle arrest or targeting cell-cycle regulators by small molecule modulators has shown promising outcomes in animal models.
For data set [6] the following is noted: 12 h, pH 7.4.
The conditions of data set [7]: PAMPA.
Another data set addresses T4, VDR-SRC2 interaction (Homo sapiens, UniProt P11473, DEL165-215).
T4 sequence (P11473 with tags, fused parts or gaps DEL165-215 limits assumed): T1 sequence (P11473 with tags, fused parts or gaps DEL165-215 limits assumed)
Briefly: Pull down assay, VDR and SRC2 bearing all three NIDs.

Another data set in a line: physchem. The note with it: pH 7.4, aqueous buffer, kinetic from dmso stock.
The nature of another data set: in vitro. The note with it: PAMPA.

In brackets after ≈: the same amount, converted by molar mass.
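For Papp in this document: passive permeability measured by parallel artificial membrane permeability assay, each experiment run in triplicate.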
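For Permeability Log(Pe) in this document: passive permeability measured by parallel artificial membrane permeability assay, each experiment run in triplicate.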

On to `Cc1[nH]c2ccccc2c1C(Nc1ccc(Cl)cc1)c1ccccc1Cl` (stereo not drawn) [Compound 31b, 4-chloro-N-((2-chlorophenyl)(2-methyl-1H-indol-3-yl)methyl)aniline], for which the “Inhibition of VDR-SRC2-1 binding” value at VDR-SRC2-1 is on record as “no inhibition”. For the same compound, on VDR-Hr1, the “Inhibition of VDR-Hr1 binding” value is given as “no inhibition”. Also, on VDR-LBD / SRC2-3 peptide, the “FP signal after pre-incubation with SRC2-3 for 3 hours, then addition of VDR-LBD and LG190178” value was “did not change”; the “FP signal after pre-incubation with VDR-LBD and LG190178 for 3 hours, then addition of SRC2-3” value is reported as “did result in a change of FP signal”. For the same compound, in the data set on TRPV6 in DU145 cells (20 nM 1,25-(OH)2D3, different concentrations), the “TRPV6 transcription in the presence of 1,25-(OH)2D3” value is on record as “reduced in a dose dependent manner”. Also, in the data set on TRPV6 in DU145 cells (20 μM, without 1,25-(OH)2D3), the “TRPV6 regulation, single treatment” value was “no regulation of TRPV6”. Also, the “CYP24A1 induction with calcitriol, in comparison to calcitriol treatment” value with CYP24A1 is listed as “significant increase in CYP24A1 induction”. For the same compound, in the data set with DU145 cells, the “Cytotoxicity in DU145 cells” value is on record as “increased cytotoxicity”. In addition, in the data set with VDR in SKOV-3 cells, the “Expression of VDR” value was “downregulation of VDR”. Moreover, in the data set with SKOV-3, the “Cytotoxicity, cell viability” value is “potent cytotoxicity”. Also, the “Cytotoxicity, cell viability” value in the data set with OVCAR-8 is “potent cytotoxicity”. In the data set with ECC-1, the “Cytotoxicity, cell viability” value is reported as “potent cytotoxicity”. Also, the “Mitochondrial transmembrane depolarization potential (ΔΨm)” value with SKOV-3 cells [1] is listed as “induced activation of mitochondrial transmembrane depolarization potential”. In the data set with SKOV-3 cells [2], the “Activation of caspase-3” value is “activation of caspase-3” and the “Cleavage of PARP-1” value is reported as “significant cleavage of PARP-1”. In addition, the “Reactive oxygen species level compared to vehicle” value in the data set with SKOV-3 cells [3] is on record as “elevated level of reactive production”. Also, in the data set with SKOV-3 cells [4], the “Activation of SAPK/JNK” value was “strong/sustained activation of SAPK/JNK” and the “Activation of p38 MAPkinase” value is recorded as “activation of p38 MAPkinase”. In the data set with SKOV-3 cells [5], the “Apoptotic (subG1/G0) population” value is on record as “increase”; the “Population in G1 and G2/M phase” value was “reduced”; the “S-phase arrest of cycling cells” value is on record as “restricted the progression of cycling cells in S-phase significantly”. The same compound showed a Solubility in data set [6] of 68.0 µM (≈ 25.9 µg/mL). For the same compound, in data set [7], the “Permeability Log(Pe)” value is −6.24 cm/s. Also, the “Inhibition of VDR-SRC2 interaction in pull down assay” value at VDR-SRC2 interaction (50 μM and 100 μM, residual interaction still detected) is “significant inhibition”. Also, on VDR-SRC2 interaction (beads washed, then treated with VDR), the “VDR-SRC2 interaction after pre-incubation of SRC2 with compound” value is listed as “VDR-SRC2 interactions could be verified”. Further, at VDR-SRC2 interaction (different concentrations, with 1,25(OH)2D3), the “Inhibition of VDR-SRC2 interaction in pull down assay” value is “blocked in a dose dependent manner”.

In the data set “physchem”, `Cc1[nH]c2ccccc2c1C(Nc1ccccc1)c1ccc(OCCCO)cc1` (stereo not drawn) [Compound 30i, 3-(4-((2-methyl-1H-indol-3-yl)(phenylamino)methyl)phenoxy)propan-1-ol] gave a solubility at 12 h of 503 µM (≈ 195 µg/mL). Besides, the apparent permeability (Papp) in “in vitro” was 0.148 ×10⁻⁶ cm/s.

Take `Clc1ccccc1C(Nc1ccccc1)c1c[nH]c2ccccc12` (stereo not drawn) [Compound 32b, N-((2-chlorophenyl)(1H-indol-3-yl)methyl)aniline]: in the data set with VDR in SKOV-3 cells, the “Expression of VDR” value was “downregulation of VDR”. The “Cytotoxicity, cell viability” value with SKOV-3, in the data set on OVCAR-8 and in the data set on ECC-1 was “did not show any cytotoxicity” in each case. The “Activation of SAPK/JNK” value in the data set with SKOV-3 cells [4] is “did not cause the similar activation”. In addition, the “Activation of p38 MAPkinase” value in the data set with SKOV-3 cells [4] was “did not cause the similar activation”. Moreover, in data set [6], the Solubility came to 52.3 µM (≈ 17.4 µg/mL). Besides, in data set [7], the “Permeability Log(Pe)” value was −6.51 cm/s.

The values above are taken from US10093653B2, “Vitamin D receptor-coregulator inhibitors” (UWM Research Foundation, Inc., priority 2011, dated 2018).
